Peptide text beside a SMILES is read from it. * marks the point of attachment. Cbz = O=C(OCc1ccccc1)*
Key:
[1] = tested on: ERα transcriptional activity (ERE); test: ERE-luciferase assay, MCF-7; type: cell-based, human; conditions: Fig. 3i, MCF-7 and T47D
ESR1 mRNA [2] = test: Real-time PCR of ESR1 mRNA, MCF-7; type: cell-based, human; conditions: MCF-7, Supplementary Fig. 1a
ESR1 mRNA [3] = test: Real-time PCR of ESR1 mRNA, T47D; type: cell-based, human; conditions: Supplementary Fig. 1b
MCF-7 cells = test: CCK-8 cell viability, MCF-7; type: cell-based, human; conditions: MCF-7 and T47D, Supplementary Fig. 1e–g
[4] = tested on: Tamoxifen-resistant cells LCC2; test: CCK-8 cell viability, LCC2; type: cell-based, human; conditions: LCC2, Fig. 7h, i
PARP and Bcl-2 = PARP and Bcl-2 by western blot, LCC2; type: cell-based, human; conditions: LCC2, 50 or 100 nM, 48 h
LCC2 xenografts = test: Tamoxifen-resistant LCC2 xenografts in nude mice; type: in vivo
[5] = Serum markers of liver and kidney function in tumor-bearing mice; type: in vivo; conditions: therapeutic doses
[6] = tested on: Tamoxifen-resistant patient-derived organoids (PDOs); test: Organoid live/dead staining; type: cell-based, human; conditions: PDO
ERα = target: T1, ERα (Homo sapiens, UniProt P03372); type: cell-based; conditions: MCF-7 and T47D, with Bufalin
T1 sequence (P03372 1-595): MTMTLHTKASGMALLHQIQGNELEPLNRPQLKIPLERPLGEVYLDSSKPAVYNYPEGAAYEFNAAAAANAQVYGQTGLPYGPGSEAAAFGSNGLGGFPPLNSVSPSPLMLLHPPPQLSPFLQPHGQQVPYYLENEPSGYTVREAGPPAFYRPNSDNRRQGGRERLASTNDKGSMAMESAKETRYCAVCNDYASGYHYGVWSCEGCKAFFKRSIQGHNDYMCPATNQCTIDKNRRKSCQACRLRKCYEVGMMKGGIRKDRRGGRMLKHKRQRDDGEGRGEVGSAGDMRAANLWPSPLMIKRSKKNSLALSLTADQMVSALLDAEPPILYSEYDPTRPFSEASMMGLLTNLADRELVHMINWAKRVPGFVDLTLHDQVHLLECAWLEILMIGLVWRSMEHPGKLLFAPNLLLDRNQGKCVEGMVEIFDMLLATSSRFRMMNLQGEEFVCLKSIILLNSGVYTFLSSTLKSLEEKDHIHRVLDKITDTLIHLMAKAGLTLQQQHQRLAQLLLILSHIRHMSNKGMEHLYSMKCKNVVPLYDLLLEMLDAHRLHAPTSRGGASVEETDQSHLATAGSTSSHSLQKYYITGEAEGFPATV

With `C[C@]12CC[C@H](O)C[C@H]1CC[C@@H]1[C@@H]2CC[C@]2(C)[C@@H](c3ccc(=O)oc3)CC[C@]12O` [Bufalin] the “Transcriptional activity of ERα (ERE luciferase)” value [1] was “weakened the transcriptional activity of ERα”, the “mRNA of ERα” value (ESR1 mRNA [2]) was “no obvious change” and the “mRNA of ERα” value (ESR1 mRNA [3]) was “no obvious change”. The “Anti-cancer effects compared with Fulvestrant” value (MCF-7 cells) was “stronger anti-cancer effects than Fulvestrant”, the “Anti-cancer effects compared with Fulvestrant” value [4] was “better anti-cancer effects than Fulvestrant” and the “Apoptosis markers PARP and Bcl-2” value (PARP and Bcl-2) was “PARP cleavage, and Bcl-2 downregulation”. The “ERα protein expression in tumors” value (LCC2 xenografts; IHC and western blot) was “the protein expression of ERα was decreased”, the “Anti-tumor activity compared with Fulvestrant” value (LCC2 xenografts; LCC2 xenografts) was “superior anti-tumor activity to Fulvestrant” and the “Ki67 in tumors (IHC)” value (LCC2 xenografts; LCC2 xenografts) was “marked Ki67 suppression”. The “Tumor volumes and weights” value (LCC2 xenografts; intraperitoneal injection) was “the tumor volumes and weights significantly decreased”, the “Toxicity by serum liver and kidney markers” value [5] was “no significant signs of drug-induced toxicity” and the “Cell death by Calcein-AM/PI staining” value [6] was “extensive cell death”.
With `CC(C)C[C@@H](C=O)NC(=O)[C@H](CC(C)C)NC(=O)[C@H](CC(C)C)NC(=O)OCc1ccccc1` [MG-132] (Cbz-Leu-Leu-Leu-aldehyde) the “Effect of co-treatment on Bufalin-induced ERα decrease” value (ERα) was “effectively prevented the Bufalin-induced decrease in ERα protein levels”.
For `NS(=O)(=O)OC[C@@H]1C[C@@H](n2ccc3c(N[C@H]4CCc5ccccc54)ncnc32)C[C@@H]1O` [MLN4924], the “Effect of co-treatment on Bufalin-induced ERα decrease” value (ERα) was “reversed the Bufalin-mediated downregulation of ERα”.

— PMC12373995 (Nature Communications, 2025)
